Test results taken from ChEMBL document CHEMBL1201862, “PubChem BioAssay data set” (2004).
Calls of active or inactive are those of the source.

How the values were obtained:
fMet-Leu-Phe receptor = molecular target: T1, fMet-Leu-Phe receptor (Homo sapiens, UniProt P21462); assay: FPR ligands, dose response (AID 519); format: functional
T1 sequence (P21462 whole entry): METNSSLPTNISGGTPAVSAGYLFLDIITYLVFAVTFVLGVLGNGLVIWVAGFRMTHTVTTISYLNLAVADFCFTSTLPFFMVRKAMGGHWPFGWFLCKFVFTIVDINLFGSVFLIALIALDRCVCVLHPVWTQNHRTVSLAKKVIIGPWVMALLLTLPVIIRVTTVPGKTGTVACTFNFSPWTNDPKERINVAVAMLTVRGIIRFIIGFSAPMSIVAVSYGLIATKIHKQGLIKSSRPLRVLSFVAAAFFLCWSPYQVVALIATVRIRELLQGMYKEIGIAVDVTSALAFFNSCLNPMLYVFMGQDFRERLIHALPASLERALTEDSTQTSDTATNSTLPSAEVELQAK

[1] = cytotoxicity in HEK-293T cells, dose response, cytotoxicity control for TCR NF-kB inhibitor project, luminescence, T-cell screen hits (AID 489026); format: functional, cell-based;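 note: cells exposed to compound about 14 hours before the viability readout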
INS1 = assay: beta cell apoptosis inhibitors, cytokine rescue, dose response, luminescence, retest (AID 449756); format: functional, cell-based; settings: Rattus norvegicus;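 note: cell death triggered by IL-1 beta plus TNF-alpha plus IFN-gamma mixture; protective hits raise ATP signal compared with cytokine alone wells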
[2] = molecular target: T2, COUP transcription factor 2 (Homo sapiens, UniProt P24468); assay: Luminescence-based cell-based high throughput dose response assay to identify inhibitors of COUP-TFII (NR2F2).; format: functional;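 note: HEK293 cells transiently cotransfected with COUP-TFII expression vector and reporter; luciferase reporter luminescence driven by COUP-TFII from the pX2-168 reporter plasmid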
T2 sequence (P24468 whole entry): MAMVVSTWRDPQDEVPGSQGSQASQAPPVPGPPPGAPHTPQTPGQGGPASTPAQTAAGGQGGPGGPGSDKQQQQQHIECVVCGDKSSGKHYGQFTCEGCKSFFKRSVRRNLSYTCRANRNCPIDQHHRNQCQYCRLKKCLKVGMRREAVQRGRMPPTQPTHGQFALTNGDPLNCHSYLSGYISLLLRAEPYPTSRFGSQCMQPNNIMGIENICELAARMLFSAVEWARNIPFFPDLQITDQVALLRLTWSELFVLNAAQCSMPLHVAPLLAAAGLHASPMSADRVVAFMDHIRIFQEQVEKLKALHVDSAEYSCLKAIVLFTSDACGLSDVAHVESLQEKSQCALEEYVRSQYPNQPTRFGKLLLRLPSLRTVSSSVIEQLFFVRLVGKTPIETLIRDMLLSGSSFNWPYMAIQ

Caspase-6 = molecular target: T3, Caspase-6 (Homo sapiens, UniProt P55212); assay: human caspase-6 inhibitors, dose response, biochemical, VEID-R110 fluorescence, cherry-pick (AID 720632)
T3 sequence (P55212 whole entry): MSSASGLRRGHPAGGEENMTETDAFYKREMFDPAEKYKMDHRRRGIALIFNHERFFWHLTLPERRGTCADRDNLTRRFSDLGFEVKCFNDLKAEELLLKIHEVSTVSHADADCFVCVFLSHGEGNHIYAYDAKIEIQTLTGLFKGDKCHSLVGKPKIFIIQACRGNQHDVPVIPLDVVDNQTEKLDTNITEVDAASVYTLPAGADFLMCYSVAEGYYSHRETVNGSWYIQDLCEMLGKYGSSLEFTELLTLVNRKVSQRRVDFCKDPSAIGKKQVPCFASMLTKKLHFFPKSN

[3] = molecular target: T4, Endoribonuclease toxin MazF (Escherichia coli K-12, UniProt P0AE70); assay: MazF toxin RNase activators, dose response, biochemical, fluorescence, single-stranded RNA substrate, uHTS hits (AID 588481); format: functional
T4 sequence (P0AE70 whole entry): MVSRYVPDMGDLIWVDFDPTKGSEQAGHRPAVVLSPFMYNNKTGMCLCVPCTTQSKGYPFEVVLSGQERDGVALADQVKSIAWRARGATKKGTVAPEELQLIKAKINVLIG

[4] = molecular target: T4, Endoribonuclease toxin MazF; assay: fluorescent RNA oligo signal without MazF, dose response, counter-screen for MazEF activator project, biochemical, fluorescence, single-stranded RNase substrate (AID 588502); format: functional
cells [5] = format: functional, cell-based
cells [6] = format: functional, cell-based; remark: listed apart in the source
[7] = molecular target: T5, Apoptotic protease-activating factor 1 (Homo sapiens, UniProt O14727); format: functional
T5 sequence (O14727 whole entry): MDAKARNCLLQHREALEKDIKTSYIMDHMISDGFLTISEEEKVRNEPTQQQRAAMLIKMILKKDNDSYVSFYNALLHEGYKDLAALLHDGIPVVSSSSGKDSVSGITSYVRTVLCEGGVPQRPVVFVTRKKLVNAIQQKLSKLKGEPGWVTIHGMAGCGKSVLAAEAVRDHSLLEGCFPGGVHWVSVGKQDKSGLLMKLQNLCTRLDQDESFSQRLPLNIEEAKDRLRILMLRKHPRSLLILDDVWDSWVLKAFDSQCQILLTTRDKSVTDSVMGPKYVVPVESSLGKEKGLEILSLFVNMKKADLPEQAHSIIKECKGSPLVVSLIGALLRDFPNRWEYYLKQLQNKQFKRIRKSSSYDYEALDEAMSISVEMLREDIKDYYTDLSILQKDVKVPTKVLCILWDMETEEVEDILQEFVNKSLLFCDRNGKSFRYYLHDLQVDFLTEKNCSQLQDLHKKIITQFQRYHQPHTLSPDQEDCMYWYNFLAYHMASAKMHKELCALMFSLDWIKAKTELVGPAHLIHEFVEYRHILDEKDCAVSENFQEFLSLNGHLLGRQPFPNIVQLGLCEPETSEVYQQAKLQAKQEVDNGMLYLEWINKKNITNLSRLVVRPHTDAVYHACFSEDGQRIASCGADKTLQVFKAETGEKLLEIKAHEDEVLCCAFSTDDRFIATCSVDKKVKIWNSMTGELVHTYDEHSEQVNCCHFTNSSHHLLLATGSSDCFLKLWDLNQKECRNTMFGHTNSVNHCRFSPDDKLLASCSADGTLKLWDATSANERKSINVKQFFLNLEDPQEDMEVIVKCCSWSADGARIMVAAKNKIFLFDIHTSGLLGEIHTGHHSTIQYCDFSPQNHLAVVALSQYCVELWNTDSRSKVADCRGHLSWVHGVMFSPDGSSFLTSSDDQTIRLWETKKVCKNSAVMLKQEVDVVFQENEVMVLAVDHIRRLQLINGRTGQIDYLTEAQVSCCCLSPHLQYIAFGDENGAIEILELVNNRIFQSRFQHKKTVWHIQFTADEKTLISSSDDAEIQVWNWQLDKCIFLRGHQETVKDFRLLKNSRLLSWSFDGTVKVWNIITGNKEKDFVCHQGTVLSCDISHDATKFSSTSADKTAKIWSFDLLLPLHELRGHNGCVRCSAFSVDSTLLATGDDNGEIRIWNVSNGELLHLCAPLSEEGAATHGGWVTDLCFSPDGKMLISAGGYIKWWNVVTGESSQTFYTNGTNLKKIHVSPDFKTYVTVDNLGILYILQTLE

Genome polyprotein = Genome polyprotein (dengue virus type 2, UniProt P29990); assay: Dengue-2 NS5 methyltransferase inhibitors, primary screen, biochemical, confirmation dose response (AID 588689); format: functional
Chain of Genome polyprotein (P29990 2492-3391 limits assumed): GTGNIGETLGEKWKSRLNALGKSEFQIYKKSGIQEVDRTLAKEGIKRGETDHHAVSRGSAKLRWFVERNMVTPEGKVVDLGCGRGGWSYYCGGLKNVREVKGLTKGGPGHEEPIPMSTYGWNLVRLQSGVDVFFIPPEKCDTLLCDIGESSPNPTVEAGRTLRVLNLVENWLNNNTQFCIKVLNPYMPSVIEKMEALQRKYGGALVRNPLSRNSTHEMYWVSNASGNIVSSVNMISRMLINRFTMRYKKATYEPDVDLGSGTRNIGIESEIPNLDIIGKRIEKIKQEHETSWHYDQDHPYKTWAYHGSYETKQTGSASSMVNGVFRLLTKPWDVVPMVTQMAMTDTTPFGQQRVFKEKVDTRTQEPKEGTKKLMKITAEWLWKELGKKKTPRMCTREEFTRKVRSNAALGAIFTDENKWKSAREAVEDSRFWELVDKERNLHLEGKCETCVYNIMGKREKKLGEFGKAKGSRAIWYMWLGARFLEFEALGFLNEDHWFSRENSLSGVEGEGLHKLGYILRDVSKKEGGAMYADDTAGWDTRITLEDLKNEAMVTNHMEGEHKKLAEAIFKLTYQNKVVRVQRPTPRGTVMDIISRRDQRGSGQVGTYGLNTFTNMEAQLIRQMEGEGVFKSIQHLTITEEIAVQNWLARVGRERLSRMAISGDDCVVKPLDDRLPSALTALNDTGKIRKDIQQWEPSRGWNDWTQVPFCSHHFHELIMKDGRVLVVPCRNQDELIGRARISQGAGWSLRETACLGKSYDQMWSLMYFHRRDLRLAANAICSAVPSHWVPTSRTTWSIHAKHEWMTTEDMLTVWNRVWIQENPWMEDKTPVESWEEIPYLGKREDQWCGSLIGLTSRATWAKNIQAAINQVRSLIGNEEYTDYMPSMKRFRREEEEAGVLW

HEK293 = assay: inhibitors of LMP1-driven NF-kB reporter, dose response, cell-based, HEK293, luciferase, cherry-pick (AID 588343); format: functional; settings: Homo sapiens
[8] = LGR2 antagonists, dose response, cell-based, HEK293, CRE-luciferase reporter, cherry pick, set 2 (AID 743343); format: functional;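 note: transfected cells were stimulated with diluted bursicon conditioned medium after compound addition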
[9] = MC4R antagonists, dose response, counter-screen for LGR2 antagonist project, cell-based, plate reader, cherry pick (AID 743444); format: functional;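 note: transfected HEK 293 cells stimulated with alpha-MSH peptide; potency of inhibitors of the alpha-MSH evoked signal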
cells [10] = format: functional, cell-based; remark: listed apart in the source
[11] = molecular target: T6, Heat shock factor protein 1 (Mus musculus, UniProt P38532); assay: inhibition of MG132-induced HSE-luciferase signal, confirmation, cell-based, NIH3T3, luminescence, dose retest (AID 2382); format: functional;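 note: NIH3T3 fibroblasts with HSF1-driven luciferase reporter stressed by proteasome inhibitor MG132; luminescence from HSF1-driven luciferase expression after 8 hours of MG132 stress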
T6 sequence (P38532 whole entry): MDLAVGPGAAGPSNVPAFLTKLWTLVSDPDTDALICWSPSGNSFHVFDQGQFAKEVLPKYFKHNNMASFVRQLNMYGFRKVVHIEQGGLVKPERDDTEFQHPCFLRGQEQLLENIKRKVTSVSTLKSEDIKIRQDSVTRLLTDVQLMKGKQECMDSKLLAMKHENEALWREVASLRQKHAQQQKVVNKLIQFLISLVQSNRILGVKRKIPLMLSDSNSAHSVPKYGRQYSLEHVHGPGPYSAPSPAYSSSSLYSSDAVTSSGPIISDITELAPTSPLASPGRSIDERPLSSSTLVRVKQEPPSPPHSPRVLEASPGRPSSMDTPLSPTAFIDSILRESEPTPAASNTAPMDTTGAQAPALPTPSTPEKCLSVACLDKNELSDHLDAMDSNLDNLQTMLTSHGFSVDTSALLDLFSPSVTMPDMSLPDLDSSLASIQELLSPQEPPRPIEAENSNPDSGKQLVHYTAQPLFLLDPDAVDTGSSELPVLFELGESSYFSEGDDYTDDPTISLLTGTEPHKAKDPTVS

cells [12] = format: functional, cell-based; remark: listed apart in the source
[13] = Luminescence-based cell-based high throughput dose response assay to identify activators of the DAF-12 from the parasite S. stercoralis (ssDAF-12).; format: functional
Nonstructural protein 1 = Nonstructural protein 1 (Influenza A virus, UniProt Q194T2); format: functional, Influenza A virus (A/California/07/2009(H1N1))
Chain of Nonstructural protein 1 (Q194T2 whole entry): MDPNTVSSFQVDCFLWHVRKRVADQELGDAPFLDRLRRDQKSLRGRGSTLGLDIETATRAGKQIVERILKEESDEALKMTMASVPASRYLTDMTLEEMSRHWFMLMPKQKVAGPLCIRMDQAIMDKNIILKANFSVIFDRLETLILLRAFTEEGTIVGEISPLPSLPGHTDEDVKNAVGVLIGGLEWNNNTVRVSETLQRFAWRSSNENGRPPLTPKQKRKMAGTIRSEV

[14] = miR-122 activators in hepatoma reporter cells, dose response, cell-based, Huh7 psiCHECK-miR122, Renilla luciferase, cherry-picked (AID 651956); format: functional;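 note: huh7 hepatoma cells stably carrying a psiCHECK-2 miR-122 sensor plasmid; renilla luciferase signal reporting endogenous miR-122 activity after 48 h compound exposure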
[15] = inhibitors of HIV Env-driven cell fusion, dose response, cherry-pick (AID 652057); format: functional, cell-based
[16] = ZM109 Env clade C HIV-1 fusion inhibitors, dose response, HeLa effector, CEM target cells, luciferase, cherry-pick (AID 652058); format: functional, cell-based
[17] = inhibitors of clade B AD8 Env fusion, dose response, cell-based, cherry-pick (AID 652062); format: functional;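 note: luciferase signal from cell-cell fusion driven by HIV-1 clade B AD8 Env; potency is for inhibitors of fusion seen as a drop in luminescence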

O=C(O)CC1Oc2ccc(Cl)cc2NC1=O (stereo not given)
Ki (fMet-Leu-Phe receptor): > 66.7 µM (inactive)

Cc1ccc(S(=O)(=O)NCc2ccncc2)c(C)c1C
IC50 [1]: > 80 µM (inactive) | AC50 (INS1): 2.48 µM (active) | IC50 [2]: 5.99 µM (active)

COCCN(C(=O)c1cc2c(s1)CCC2)c1c(N)n(CC(C)C)c(=O)[nH]c1=O
AC50 (Caspase-6): 22.4 µM (active)

COc1ccc2nc(SCC(=O)N3CC(=O)Nc4ccccc43)c(C#N)cc2c1
EC50 [3]: > 99 µM (inactive) | EC50 [4]: > 99 µM (inactive)

O=C(Cn1cnc2c(oc3ccccc32)c1=O)NCCc1ccccc1
IC50 (cells [5]): > 29.9 µM (inactive) | EC50 (cells [6]): > 29.9 µM (inactive)

O=S(=O)(c1c[nH]cn1)N1CCc2ccccc21
Ki (fMet-Leu-Phe receptor): > 66.7 µM (inactive)

CCc1ccc[n+](-c2nc3ccccc3nc2[C-](C#N)C#N)c1
EC50 [3]: 59.2 µM (inactive) | EC50 [4]: > 99 µM (inactive)

COC(=O)CCC(=O)OC1(C)C(=O)C2=CN(C3CCCC3)C(c3ccc(OC)cc3)=CC2=C(Br)C1=O (stereo not given)
IC50 [7]: 17.4 µM (active) | IC50 (Genome polyprotein): 33.8 µM (active)

COc1cc(OC)c(OC)cc1/C=C(\C#N)C(=O)NCc1cccs1
EC50 [3]: > 99 µM (inactive) | EC50 [4]: > 99 µM (inactive)

COc1ccc(-c2cc(C(=O)N3CCCC3)no2)cc1
AC50 (HEK293): 3.97 µM (active) | AC50 [8]: 5.07 µM (active) | AC50 [9]: 5.22 µM (active)

C=CCOc1ccc(C2C(C(=O)c3ccco3)=C(O)C(=O)N2Cc2cccnc2)cc1 (stereo not given)
Ki (fMet-Leu-Phe receptor): 9.7 µM (active)

C[C@@H](C(=O)Nc1ccc2c(c1)OCCO2)n1c(=O)[nH]c2ccccc2c1=O
EC50 (cells [10]): > 350 µM (not active) | EC50 [11]: 0.377 µM (active) | EC50 (cells [12]): > 350 µM (not active) | AC50 (HEK293): 6.08 µM (active)

CCOC(=O)Nc1ccc(OC)cc1S(=O)(=O)N1CCCCC1
Ki (fMet-Leu-Phe receptor): > 66.7 µM (inactive)

CCC(C)N1C(=O)/C(=C\c2ccc(N3CCCCCC3)cc2)C(=O)NC1=S (stereo not given)
IC50 [13]: > 67.5 µM (inactive)

O=C(O)CCNc1cc(N2CCN(C(=O)c3ccco3)CC2)c2noc3c2c1C(=O)c1ccccc1-3
IC50 (Nonstructural protein 1): 26.9 µM (active) | IC50 [7]: 21.4 µM (active)

N#Cc1c(NC(=O)CCCC(=O)O)sc2c1CCCCC2
AC50 (HEK293): 4.36 µM (active)

Cc1cc(NC2CCCC2)n2ncc(-c3ccccc3)c2n1
IC50 [2]: 49.3 µM (inactive)

CCN(C[C@H]1[C@H](c2ccccc2)[C@@H](CO)N1C(=O)C1CC1)C(=O)NC1CCCC1
AC50 [14]: 47.8 µM (active)

CCN(C[C@@H]1[C@@H](c2ccc(C3=CCCCC3)cc2)[C@@H](CO)N1CC1CC1)C(C)=O
AC50 [14]: 31.2 µM (active)

CCCC#Cc1ccc2c(c1)O[C@@H](CN(C)S(=O)(=O)c1cccc(F)c1)[C@@H](C)CN([C@@H](C)CO)S2(=O)=O
AC50 [15]: 4.98 µM (active) | AC50 [16]: 3.62 µM (active) | AC50 [17]: 13.3 µM (active)
